The results in this text go back to patent US11702402B2, “Small molecules that block proteasome-associated ubiquitin receptor RPN13 function and uses thereof” (DANA-FARBER CANCER INSTITUTE, INC., priority 2018, dated 2023).

Data set [1] has as its system 20S proteasome. Put plainly: Proteasome activity assay in lysates of treated MM.1S cells. Format: cell-based, Human. Conditions: cellular extracts of MM.1S cells treated 1 μM or 10 μM for 3 hours. Here is the method: MM.1S cells, which were treated with DMSO control, bortezomib, or WL40 at indicated concentration for 3 hours; protein lysates were analyzed for different proteasome activities (CT-L, chymotrypsin-like; T-L, trypsin-like; C-L, caspase-like). FIG. 20B is a bar graph showing percent proteasome activity after normalization with DMSO control (mean±SD; n=3). Recombinant 20S proteasome was incubated with DMSO, bortezomib, or WL40 for 30 minutes, followed by assessment of the above-noted proteasome activities. FIG. 20C MM.1S cells were pretreated with exemplary proteasome inhibitor MG132 (10 μM) for 1 hour, followed by addition of WL40 (400 nM) for 8 hours. […] Total protein lysates were subjected to immunoblots for Rpn13 and α-tubulin. […] FIG. 20E ANBL6.BR cells were treated with WL40 (400 nM) or RA190 (500 nM) for 16 hours; protein lysates were subjected to immunoblot analysis using anti-Rpn13 or anti-β-actin Abs.
MM.1S cells were treated with WL40 (1 μM or 10 μM) or Bortezomib (1 μM) for 3 hours; cells were then harvested and lysed in lysis buffer, followed by removal of debris by centrifugation. Total protein (25 μg) was analyzed for proteasome activity using 20S proteasome Assay Kit (Calbiochem), as previously described.^33

In data set [2] the test system is MM.1R cells. Briefly: MM.1R cell viability (WST). The data set is classed as cell-based, Human. Conditions: MM.1R (dexamethasone-resistant), 48 hours. From the text: (§1) The IC50 of WL40 for cell lines is shown.
Data set [3] deals with MM.1S cells co-cultured with patient pDCs. Put plainly: MM.1S co-culture with patient pDCs (WST). The data set is classed as cell-based, Human. Conditions: 48 hours.
Source text: as §1

The subject of data set [4] is PARP, caspase-3, caspase-7, caspase-8, caspase-9. Briefly: PARP/caspase immunoblot and caspase enzymatic activity. The data set is classed as cell-based, Human. How it is done:
(§2) FIGS. 22A to 22F show the mechanisms of WL40-induced MM cell death. […] MM.1S cells were treated with DMSO control or WL40 (200 nM) for 16 hours, and then analyzed for apoptosis using Annexin V/PI double staining assay (mean±SD; n=3; p<0.001). FIG. 22B is an immunoblot of MM.1S and ANBL6.BR cells, which were treated with DMSO control or WL40 (200 nM for MM.1S; 1 μM for ANBL6.BR) for 16 hours; protein lysates were then subjected to the immunoblotting using antibodies against poly ADP ribose polymerase (PARP), caspase-3, caspase-7, caspase-8, caspase-9, or β-actin. FL, full length; CF, cleaved fragment. FIG. 22C is a bar graph measuring enzymatic activity. MM.1S cells were treated with DMSO control or WL40 (200 nM) for 12 hours, followed by the measurement of caspase-3, caspase-8, or caspase-9 enzymatic activity (mean±SD; n=3; p<0.0001). FIG. 22D is an immunoblot of MM.1S and ANBL6.BR cells, which were treated with DMSO control or WL40 (200 nM for MM.1S; 1 μM for ANBL6.BR) for 16 hours; protein lysates were then subjected to the immunoblotting using specific antibodies against Cyclin-B1, Cell Division Cycle 25C (CDC25C), Cell Division Cycle 2 (CDCl2), or β-actin. […]

For data set [5], the system named is cyclin-B1, CDC25C, and CDCl2. Put plainly: Cell-cycle regulatory protein immunoblot. The settings on record: MM.1S 200 nM; ANBL6.BR 1 μM; 16 hours. Format: cell-based, Human. Here is the method:
as §2

Data set [6] deals with LC3A/B. Briefly: Autophagy marker LC3A/B immunoblot. The data set is classed as cell-based, Human. The settings on record: ANBL6.BR or MM.1S; versus DMSO or RA190.
Data set [7] relates to MM.1S cells. The settings on record: human, 48 h.
Method: FIGS. 4A and 4B show multiple myeloma 1S (MM.1S) cells treated with RA190, WL40, and WL44 at the indicated concentrations for 24 hours. Wst-1 assay was used to test cell viability.
In FIG. 13B, multiple myeloma cells (MM.1S) were treated with RA190 or compound JQRA at the indicated concentrations for 72 hours, and the percentage of viable cells was measured.
Purified CD138^+ patient MM cells, which were treated with DMSO control or WL40 at indicated concentrations for 48 hours, followed by assessment for cell viability using CellTiter-Glo assay (mean±SD of triplicate cultures; p<0.001). […] Normal PBMCs from healthy donors were treated with DMSO control or WL40 at indicated concentrations for 48 hours, and then analyzed for cell viability using CellTiter-Glo assay (mean±SD of quadruplicate cultures). […] MM.1S cells were cultured with or without patient BMSCs in the presence or absence of WL40 for 48 hours, and cell proliferation was measured by WST assay (mean±SD; n=3; p<0.0001). […] MM.1S cells were cultured with or without patient pDCs in the presence or absence of WL40 for 48 hours, and cell proliferation was measured by WST assay (mean±SD; n=3; p<0.0001).

“Also recorded” adds a separate entry of the source.

`O=C1CCC(N2C(=O)c3cccc(NCCOCCOCCOCCC(=O)N[C@@H](Cc4ccccc4)C(=O)N4C/C(=C\c5ccc(Cl)c(Cl)c5)C(=O)/C(=C/c5ccc(Cl)c(Cl)c5)C4)c3C2=O)C(=O)N1` (some centres unmarked) [WL40]: the “20S proteasomal activities (chymotrypsin-like, trypsin-like, caspase-like)” value in data set [1] was “does not inhibit 20S proteasomal activities”. The “cytotoxicity (cell viability)” value in data set [2] and in data set [7] was “more cytotoxic than the parental Rpn13 inhibitor RA190” throughout. The “viability of MM cells in co-culture” value in data set [3] is “dose-dependent decrease in the viability of MM cells”. Moreover, in data set [4] (200 nM for MM.1S, 1 μM for ANBL6.BR, 16 hours), the “PARP cleavage (immunoblot)” value was “proteolytic cleavage of Poly (ADP) ribose polymerase (PARP)”. For the same compound, the caspase activation result in data set [4] (MM.1S 200 nM, immunoblot 16 hours, enzymatic activity 12 hours) is “activation of caspase-3, caspase-7, caspase-8 and caspase-9”. Also, the “levels of cell-cycle regulatory proteins” value in data set [5] is “reduction in the levels of cell-cycle regulatory proteins”. For the same compound, in data set [6], the “LC3A/B level / LC3 activation” value is listed as “significant increase in LC3A/B; also recorded: more pronounced LC3 activation”.
